From patent US20250122253A1, “REGULATING MICROTUBULE DYNAMICS AS A THERAPEUTIC TARGET FOR NERVE REPAIR” (City University of Hong Kong, priority 2023, published 2025)

What was measured:
spinal neurons = conditions: background statement; paclitaxel in rats; cited from earlier work
tubulin = conditions: epothilone B: cultured rat cortical neurons; cited from earlier work
[1] = chronic exposure, high doses in animals; cited from earlier work
[2] = tested on: regenerating sensory axons of the injured sciatic nerve; experiment: Sciatic nerve pinch test after sciatic nerve crush injury; assay type: in vivo, mice; conditions: AAV2/9-Fmn2-shRNA mice; 3 days after sciatic nerve injury; LMK-235 20 mg/kg intraperitoneally 3 consecutive days
Experimental: Sciatic nerve crush or transection injury was performed in anesthetized adult male C57BL/6 or Fmn2^−/− mice (8-12 weeks old) as previously described. Briefly, the left sciatic nerve was exposed at mid-thigh level. For crush injury, the exposed nerve was crushed with smooth forceps (Dumont #5/45 Forceps, Fine Science Tools) at the sciatic notch for 15 seconds. For sciatic nerve transection, an epineural suture was first made at the level of external rotator muscle, just distal to the sciatic notch. The exposed nerve was then transected using a pair of ophthalmic microscissors just distal to the suture. After injury, the overlying muscle and skin were sutured using a 5-0 suture (Ethilon), and the mice were allowed to recover on a heated pad, and returned to their home cages after recovery. The surgeon was blinded to the genotypes and treatments.
For in vivo gene silencing of Fmn2 and/or Hdac5 in DRGs, AAV2/9-Fmn2-shRNA and AAV2/9-Hdac5-shRNA at a titer of 5×10^12 vg/mL (OBIO Technology) were injected into the sciatic nerve directly through a glass micropipette using a microinjector (Harvard Apparatus) two weeks before sciatic nerve crush injury. The mice were then subjected to sciatic nerve crush injury and sciatic nerve pinch test (FIG. 4) and animal behavioural assessment (FIG. 15). The expression of shRNAs was under the control of the U6 promoter, and the expression of the reporter gene eGFP was under the control of the CAG promoter. AAV2/9-scr-shRNA (Packgene) was used as a negative control (see FIG. 22 for the shRNA sequences). On a separate batch of animals, the knockdown efficiency in DRGs was assessed by Western blot analysis in AAV2-Fmn2-shRNA and AAV2-Hdac5-shRNA mice two weeks after the AAV injection (FIGS. S8B and S9). […]
Sciatic nerve pinch test was performed in the ipsilateral side 3 days after sciatic nerve crush injury. […] The distance (in mm) representing the length of axonal regrowth was recorded from the crushed site to the most distal point of sciatic nerve whereas initial withdrawal reflex was observed after pinching. […]

acetylated tubulin = experiment: Western blot of acetylated tubulin/total tubulin in sciatic nerve segments 0-6 mm distal to the crush site; assay type: in vivo, mice; conditions: AAV2/9-Fmn2-shRNA mice; 3 days after injury
Experimental: (§1) Ipsilateral L4/5 DRG neurons were harvested at various time points following sciatic nerve injury as indicated. Sciatic nerves were harvested 3 days after crush injury and segmented into 0-6 mm distal to the crush site. Each protein sample was pooled from 3 mice. DRG neurons and segmented sciatic nerves were mechanically dissociated with protein lysis buffer, and subjected to measurement of protein concentration using protein BCA assay (Pierce). Protein lysate (30 μg) was separated on 4-12% NuPAGE Tris-Glycine precast gel (Invitrogen). Protein was then transferred onto a PVDF membrane (Bio-Rad) and blocked with 5% non-fat milk (Bio-Rad) in TBS-T. The membrane was incubated with anti-FMN2 (1:500; ProteinTech), anti-phosphorylated HDAC5 (1:500, ThermoFisher), anti-HDAC5 (1:500, Novus Biologicals), anti-acetylated tubulin (1:10,000; Sigma-Aldrich), anti-NeuN (1:500; Millipore), anti-SOX10 (1:500; Abcam), anti-IBA-1 (1:1,000; Wako), anti-GFP (1:1,000; Cell Signaling), and anti-GAPDH antibodies (1:2,000; ProteinTech) as loading controls. The membrane was incubated with secondary antibody conjugated with horseradish peroxidase (1:2,000; Thermo-Fisher). Signals were detected using West Femto Maximum Sensitivity Substrate Kit (Thermo Scientific). […] Band intensities were measured using Image Lab software (Bio-Rad). […]

pHDAC5 = experiment: Western blot of pHDAC5 in sciatic nerve segments 0-6 mm distal to the crush site; assay type: in vivo, mice; conditions: AAV2/9-Fmn2-shRNA mice; 3 days after injury
Experimental: as §1

damaged axons = conditions: background statement; cited from earlier work

C/C(=C\c1csc(C)n1)[C@@H]1C[C@@H]2O[C@]2(C)CCC[C@H](C)[C@H](O)[C@@H](C)C(=O)C(C)(C)[C@@H](O)CC(=O)O1 [Epothilone B]
axon regeneration after spinal cord injury (spinal neurons): promoted in vivo axon regeneration | tubulin polymerization at growing tips / growth cones (tubulin): induced rapid tubulin polymerization | peripheral neuropathy [1]: cause chemotherapy-induced peripheral neuropathy

Cc1cc(C)cc(C(=O)NOCCCCCC(=O)NO)c1 [LMK-235]
effect on the axon regrowth-promoting effect in AAV2/9-Fmn2-shRNA mice [2]: completely eliminated the axon regrowth-promoting effect | acetylated tubulin expression in sciatic nerves of AAV2/9-Fmn2-shRNA mice (acetylated tubulin): increased acetylated tubulin expression | reduction of pHDAC5 protein expression in AAV2/9-Fmn2-shRNA mice (pHDAC5): 70%

CC(=O)O[C@H]1C(=O)[C@@]2(C)[C@H]([C@H](OC(=O)c3ccccc3)[C@]3(O)C[C@H](OC(=O)[C@H](O)[C@@H](NC(=O)c4ccccc4)c4ccccc4)C(C)=C1C3(C)C)[C@]1(OC(C)=O)CO[C@@H]1C[C@@H]2O [paclitaxel]
axon regeneration after spinal cord injury (spinal neurons): facilitated in vivo axon regeneration | tubulin polymerization at growing tips / growth cones (tubulin): induced active tubulin polymerization

O=C(CCCCCN1C(=O)c2cccc3cccc(c23)C1=O)NO [scriptaid]
axonal regrowth after PNI (damaged axons): markedly stalled axonal regrowth
